The assay deals with PD-L1 His protein / PD-1 Fc protein (Homo sapiens, UniProt Q9NZQ7). Kind of assay: HTRF Assay (PD-1/PD-L1 interaction). The format is binding. The conditions noted are these: PD-L1 His 6 nM, PD-1 Fc 6 nM. The method, boiled down:
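Compounds tested from 20 μM down to 0.001 μM (3-fold) against 6 nM PD-L1 His and 6 nM PD-1 Fc, 15 min room temperature incubation. Detection after 1 h at room temperature with Tb cryptate anti-6HIS and XL665 anti-human IgG reagents (mixture at 0.35 nM and 6.7 nM), HTRF signal.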
A general note: TR-FRET usually uses a lanthanide donor and a delayed reading to cut background.

Sequence of PD-L1 His protein / PD-1 Fc protein (Q9NZQ7 19-238 limits assumed): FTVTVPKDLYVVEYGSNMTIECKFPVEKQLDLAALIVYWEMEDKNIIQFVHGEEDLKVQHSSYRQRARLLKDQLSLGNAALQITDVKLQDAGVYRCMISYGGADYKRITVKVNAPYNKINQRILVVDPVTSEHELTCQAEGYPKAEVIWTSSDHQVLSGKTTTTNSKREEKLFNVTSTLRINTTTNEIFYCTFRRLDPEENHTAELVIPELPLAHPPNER

In turn, `COc1nc(NCCNC(C)=O)cnc1-c1cccc(-c2cccc(-c3ncc(NCCNC(C)=O)nc3OC)c2Cl)c1Cl` [Example 39, N,N′-((((2,2′-Dichloro-[1,1′-biphenyl]-3,3′-diyl)bis(6-methoxypyrazine-5,2-diyl))bis(azanediyl))bis(ethane-2,1-diyl))diacetamide] yielded a half-inhibitory concentration (IC50) of 1000 nM.

In turn, `CN1CCC(NC[C@@H]2CCC(=O)N2)c2ccc(-c3cccc(-c4cccc(-c5ccc6c(n5)N(C)CCC6NC[C@@H]5CCC(=O)N5)c4Cl)c3Cl)nc21` (stereo partly drawn) [Example 42, (5S,5'S)-5,5′-((((2,2′-Dichloro-[1,1′-biphenyl]-3,3′-diyl)bis(1-methyl-1,2,3,4-tetrahydro-1,8-naphthyridine-7,4-diyl))bis(azanediyl))bis(methylene))bis(pyrrolidin-2-one)] displayed an IC50 of 2.3 nM.

For the molecule `O=C1CC[C@@H](CNC2COc3nc(-c4cccc(-c5cccc(-c6ccc7c(n6)OCC7NC[C@@H]6CCC(=O)N6)c5Cl)c4Cl)ccc32)N1` (stereo partly drawn) [Example 44, (5S,5'S)-5,5′-((((2,2′-Dichloro-[1,1′-biphenyl]-3,3′-diyl)bis(2,3-dihydrofuro[2,3-b]pyridine-6,3-diyl))bis(azanediyl))bis(methylene))bis(pyrrolidin-2-one)], the IC50 was 550 nM. This IC50 lies about 240-fold higher than the previous one.

The molecule `COc1nc(-c2cccc(-c3cccc(-c4ccn5c(=O)c(CNC[C@@H]6CCC(=O)N6)cnc5c4)c3Cl)c2Cl)cnc1CNC[C@@H]1CCC(=O)N1` [Example 47, 8-(2,2′-Dichloro-3′-(6-methoxy-5-(((((S)-5-oxopyrrolidin-2-yl)methyl)amino)methyl)pyrazin-2-yl)-[1,1′-biphenyl]-3-yl)-3-(((((S)-5-oxopyrrolidin-2-yl)methyl)amino)methyl)-4H-pyrido[1,2-a]pyrimidin-4-one] displayed an IC50 of 1.4 nM.

In turn, `O=C1CC[C@@H](CNCc2cnc3cc(-c4cccc(-c5cccc(-c6ccn7c(=O)c(CNC[C@@H]8CCC(=O)N8)cnc7c6)c5Cl)c4Cl)ccn3c2=O)N1` [Example 48, (S)-8,8′-(2,2′-Dichloro-[1,1′-biphenyl]-3,3′-diyl)bis(3-(((((S)-5-oxopyrrolidin-2-yl)methyl)amino)methyl)-4H-pyrido[1,2-a]pyrimidin-4-one)] returned an IC50 of 7 nM.

`COc1nc(-c2cccc(-c3cccc(-c4ccn5c(=O)c(CNC[C@@H]6CCC(=O)N6)ccc5c4)c3C)c2Cl)cnc1CNC[C@@H]1CCC(=O)N1` [Example 49, 8-(2′-Chloro-3′-(6-methoxy-5-(((((S)-5-oxopyrrolidin-2-yl)methyl)amino)methyl)pyrazin-2-yl)-2-methyl-[1,1′-biphenyl]-3-yl)-3-(((((S)-5-oxopyrrolidin-2-yl)methyl)amino)methyl)-4H-quinolizin-4-one] displayed an IC50 of 6.3 nM. The IC50 values of the last two molecules are within 1.5-fold of each other.

`Cc1c(-c2ccn3c(=O)c(CNC[C@@H]4CCC(=O)N4)cnc3c2)cccc1-c1cccc(-c2ccc(CNC[C@@H]3CCC(=O)N3)c(Cl)n2)c1Cl` [Example 50, 8-(2′-Chloro-3′-(6-chloro-5-(((((S)-5-oxopyrrolidin-2-yl)methyl)amino)methyl)pyridin-2-yl)-2-methyl-[1,1′-biphenyl]-3-yl)-3-(((((S)-5-oxopyrrolidin-2-yl)methyl)amino)methyl)-4H-pyrido[1,2-a]pyrimidin-4-one] had an IC50 of 8.1 nM.

Molecule `COc1nc(-c2cccc(-c3cccc(-c4ccn5c(=O)c(CN(C)C[C@@H]6CCC(=O)N6)cnc5c4)c3C)c2Cl)ccc1CNC[C@@H]1CCC(=O)N1` [Example 54, 8-(2′-Chloro-3′-(6-methoxy-5-(((((S)-5-oxopyrrolidin-2-yl)methyl)amino)methyl)pyridin-2-yl)-2-methyl-[1,1′-biphenyl]-3-yl)-3-((methyl(((S)-5-oxopyrrolidin-2-yl)methyl)amino)methyl)-4H-pyrido[1,2-a]pyrimidin-4-one] came in with an IC50 of 7 nM. This IC50 and that of the molecule before are within 1.5-fold of each other.

Molecule `COc1nc(-c2cccc(-c3cccc(-c4ccn5c(=O)c(CN(C)C[C@@H]6CCC(=O)N6)cnc5c4)c3C)c2Cl)ccc1CN1CC(O)C1` [Example 55, (S)-8-(2′-Chloro-3′-(5-((3-hydroxyazetidin-1-yl)methyl)-6-methoxypyridin-2-yl)-2-methyl-[1,1′-biphenyl]-3-yl)-3-((methyl((5-oxopyrrolidin-2-yl)methyl)amino)methyl)-4H-pyrido[1,2-a]pyrimidin-4-one] displayed an IC50 of 43 nM.

On to `Cc1c(-c2ccn3c(=O)c(CNC[C@@H]4CCC(=O)N4)cnc3c2)cccc1-c1cccc(-c2ccc(CNC[C@@H]3CCC(=O)N3)c(F)n2)c1Cl` [Example 57, 8-(2′-Chloro-3′-(6-fluoro-5-(((((S)-5-oxopyrrolidin-2-yl)methyl)amino)methyl)pyridin-2-yl)-2-methyl-[1,1′-biphenyl]-3-yl)-3-(((((S)-5-oxopyrrolidin-2-yl)methyl)amino)methyl)-4H-pyrido[1,2-a]pyrimidin-4-one], for which the IC50 stood at 3.1 nM. This IC50 lies about 14-fold lower than the previous one.

The molecule `COc1nc(-c2cccc(-c3cccc(-c4cc(=O)n5cc(CNC[C@@H]6CCC(=O)N6)ccc5n4)c3Cl)c2Cl)cnc1CNC[C@@H]1CCC(=O)N1` [Example 58, 2-(2,2′-Dichloro-3′-(6-methoxy-5-(((((S)-5-oxopyrrolidin-2-yl)methyl)amino)methyl)pyrazin-2-yl)-[1,1′-biphenyl]-3-yl)-7-(((((S)-5-oxopyrrolidin-2-yl)methyl)amino)methyl)-4H-pyrido[1,2-a]pyrimidin-4-one] yielded an IC50 of 2.2 nM. The IC50 values of the last two molecules are within 1.5-fold of each other.

Turning to `COc1nc(-c2cccc(-c3cccc(-c4cc(=O)n5cc(CNC[C@@H]6CCC(=O)N6)ccc5n4)c3Cl)c2Cl)ccc1CNC[C@@H]1CCC(=O)N1` [Example 59, 2-(2,2′-Dichloro-3′-(6-methoxy-5-(((((S)-5-oxopyrrolidin-2-yl)methyl)amino)methyl)pyridin-2-yl)-[1,1′-biphenyl]-3-yl)-7-(((((S)-5-oxopyrrolidin-2-yl)methyl)amino)methyl)-4H-pyrido[1,2-a]pyrimidin-4-one], the IC50 came to 2.9 nM.

Regarding `O=C1CC[C@@H](CNCc2ccc3nc(-c4cccc(-c5cccc(-c6cc(=O)n7cc(CNC[C@@H]8CCC(=O)N8)ccc7n6)c5Cl)c4Cl)cc(=O)n3c2)N1` [Example 60, 2,2′-(2,2′-Dichloro-[1,1′-biphenyl]-3,3′-diyl)bis(7-(((((S)-5-oxopyrrolidin-2-yl)methyl)amino)methyl)-4H-pyrido[1,2-a]pyrimidin-4-one)], the IC50 stood at 460 nM.

The molecule `Cc1c(-c2ccn3c(=O)c(CNC[C@@H]4CCC(=O)N4)cnc3c2)cccc1-c1cccc(-c2ccc(CNC[C@@H]3CCC(=O)N3)cn2)c1Cl` [Example 61, 8-(2′-Chloro-2-methyl-3′-(5-(((((S)-5-oxopyrrolidin-2-yl)methyl)amino)methyl)pyridin-2-yl)-[1,1′-biphenyl]-3-yl)-3-(((((S)-5-oxopyrrolidin-2-yl)methyl)amino)methyl)-4H-pyrido[1,2-a]pyrimidin-4-one] gave an IC50 of 16 nM.

`Cc1c(-c2ccn3c(=O)c(CNC4CNC(=O)C4)cnc3c2)cccc1-c1cccc(-c2ccc(CNC[C@@H]3CCC(=O)N3)c(F)n2)c1Cl` (stereo partly drawn) [Example 62, 8-(2′-Chloro-3′-(6-fluoro-5-(((((S)-5-oxopyrrolidin-2-yl)methyl)amino)methyl)pyridin-2-yl)-2-methyl-[1,1′-biphenyl]-3-yl)-3-(((5-oxopyrrolidin-3-yl)amino)methyl)-4H-pyrido[1,2-a]pyrimidin-4-one]: inhibition was half-maximal at 19 nM (IC50).

`Cc1c(-c2ccn3c(=O)c(CNC[C@@H]4CCC(=O)N4)cnc3c2)cccc1-c1cccc(-c2ccc(CNC[C@@H]3CCC(=O)N3)c(N(C)C)n2)c1Cl` [Example 64, 8-(2′-Chloro-3′-(6-(dimethylamino)-5-(((((S)-5-oxopyrrolidin-2-yl)methyl)amino)methyl)pyridin-2-yl)-2-methyl-[1,1′-biphenyl]-3-yl)-3-(((((S)-5-oxopyrrolidin-2-yl)methyl)amino)methyl)-4H-pyrido[1,2-a]pyrimidin-4-one] returned an IC50 of 37 nM.

As to `Cc1c(-c2ccn3c(=O)c(CNC[C@@H]4CCC(=O)N4)cnc3c2)cccc1-c1cccc(-c2ccc(CNC[C@@H]3CCC(=O)N3)cc2)c1Cl` [Example 65, 8-(2′-Chloro-2-methyl-4″-(((((S)-5-oxopyrrolidin-2-yl)methyl)amino)methyl)-[1,1′:3′,1″-terphenyl]-3-yl)-3-(((((S)-5-oxopyrrolidin-2-yl)methyl)amino)methyl)-4H-pyrido[1,2-a]pyrimidin-4-one], the IC50 came to 5.6 nM.

As for `COc1cc(-c2cccc(-c3cccc(-c4ccn5c(=O)c(CNC[C@@H]6CCC(=O)N6)cnc5c4)c3C)c2Cl)ccc1CNC[C@@H]1CCC(=O)N1` [Example 66, 8-(2′-Chloro-3″-methoxy-2-methyl-4″-(((((S)-5-oxopyrrolidin-2-yl)methyl)amino)methyl)-[1,1′:3′,1″-terphenyl]-3-yl)-3-(((((S)-5-oxopyrrolidin-2-yl)methyl)amino)methyl)-4H-pyrido[1,2-a]pyrimidin-4-one], the IC50 is 5.2 nM.

`Cc1c(-c2ccn3c(=O)c(CNC[C@@H]4CCC(=O)N4)cnc3c2)cccc1-c1cccc(-c2ccc(CNC[C@@H]3CCC(=O)N3)c(Cl)c2)c1Cl` [Example 67, 8-(2′,3″-Dichloro-2-methyl-4″-(((((S)-5-oxopyrrolidin-2-yl)methyl)amino)methyl)-[1,1′:3′,1″-terphenyl]-3-yl)-3-(((((S)-5-oxopyrrolidin-2-yl)methyl)amino)methyl)-4H-pyrido[1,2-a]pyrimidin-4-one] gave an IC50 of 3.5 nM.

On to `COc1nc(-c2cccc(-c3cccc(-c4ccn5c(=O)c(CNCCNC(C)=O)cnc5c4)c3Cl)c2Cl)ccc1CNCCNC(C)=O` [Example 69, N-(2-(((6-(3′-(3-(((2-Acetamidoethyl)amino)methyl)-4-oxo-4H-pyrido[1,2-a]pyrimidin-8-yl)-2,2′-dichloro-[1,1′-biphenyl]-3-yl)-2-methoxypyridin-3-yl)methyl)amino)ethyl)acetamide], for which the IC50 came to 1.9 nM. Against the preceding molecule, the IC50 is about 1.8-fold lower.

A word on the IC50: it is the concentration needed to halve the response being measured.

(Values after patent US20230143612A1 (Arbutus Biopharma Corporation, priority 2020, published 2023).)
